Laboratory results: patent publication EP4692071A1, “PHOTOCHROMIC COMPOUND, NAPHTHOL DERIVATIVE, CURABLE COMPOSITION, OPTICAL ARTICLE, LENS, AND EYEGLASS” (TOKUYAMA CORPORATION, priority 2023, dated 2024)
Values belong to the compound of their own block, whether it stands above or below them.

Assays:
Type in all cases: physicochemical
[1] = 35°C color optical density (A35): absorbancy difference ε(240)-ε(0) after 240 s light irradiation at 35°C; conditions: 240 s irradiation; for 35°C color optical density (-): photochromic laminate by coating method, comparative compounds; for A35 (-): binder sheet (binder method)
Procedure, shortened: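 A photochromic cured product was irradiated with light at 35°C for 240 seconds. The 35°C color optical density (A35) was the absorbancy after irradiation {ε(240)} minus the absorbancy without irradiation ε(0), read at the first and second absorption wavelengths. It served as an indicator of color optical density.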

[2] = Maximum absorption wavelength (λmax) after color development, spectrophotometer MCPD3000; conditions: for Maximum absorption wavelength: after color development
Procedure, shortened: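 Read-out: absorbance at λmax, multichannel photodetector spectrophotometer. Colour density = ε(240) − ε(0), 240 s light, 23°C. τ1/2 = time for ε(240) − ε(0) to halve after light off. Residual rate compares density before and after 90 h xenon weathering.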

[3] = 23°C color optical density (A23): absorbancy difference ε(240)-ε(0) after 240 s light irradiation at 23°C; conditions: 240 s irradiation; for 23°C color optical density (-): photochromic laminate by coating method, comparative compounds; for A23 (-): binder sheet (binder method)
Procedure, shortened: (§1)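 Absorbance differences between the dark and 240 s-irradiated states, measured at 23°C, served as the density metric. The same signal was followed after irradiation to obtain the half-decay time. Lenses then underwent 90 h of accelerated xenon deterioration.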

[4] = Residual rate (A90/A0×100) after 90 h accelerated deterioration in xenon weather meter X25, color developing durability; conditions: for Residual rate (%): xenon weather meter 90 hours; for Residual rate: after 90 h accelerated deterioration
Procedure, shortened: as §1

[5] = High-temperature color development rate (A35/A23×100), temperature dependency; conditions: for Temperature change rate (%): photochromic laminate by coating method, comparative compounds, corresponds to A35/A23×100
Procedure, shortened: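 Color optical density was taken as the absorbance after 240 seconds of light irradiation, ε(240), minus the absorbance without irradiation, ε(0), at the absorption maximum. It was measured at 23°C (A23) and at 35°C (A35), and the ratio A35/A23×100 served as the high-temperature color development rate, showing temperature dependency.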

[6] = photochromic laminate by coating method
[7] = photochromic laminate prepared by coating method, absorption band at 449 nm
[8] = photochromic laminate prepared by coating method, absorption band at 569 nm
[9] = binder sheet (binder method), urethaneurea resin photochromic layer between polycarbonate sheets, 0.25 mmol per 100 parts by mass resin
[10] = photochromic laminate by coating method, 40 µm photochromic layer on thiourethane lens, 0.25 mmol compound per 100 g monomers
[11] = photochromic laminate prepared by coating method

Compound: CCCCOc1ccc(C2(c3ccc(OCCCC)cc3)C=Cc3c4c(c5cc(NC(=O)c6ccccc6)c(OC)cc5c3O2)-c2ccccc2C4(C)C)cc1 [Formula (B), reference compound]
- 35°C color optical density (-) ([1]; absorption band at 463 nm): 0.88 -
- 35°C color optical density (-) ([1]; absorption band at 573 nm): 0.62 -
- Maximum absorption wavelength (nm) ([2]; photochromic laminate by coating method, 40 µm photochromic layer on thiourethane lens, 0.25 mmol compound per 100 g monomers, absorption band at 463 nm): 463 nm
- Maximum absorption wavelength (nm) ([2]; photochromic laminate by coating method, 40 µm photochromic layer on thiourethane lens, 0.25 mmol compound per 100 g monomers, absorption band at 573 nm): 573 nm
- 23°C color optical density (-) ([3]; absorption band at 463 nm): 1.30 -
- 23°C color optical density (-) ([3]; absorption band at 573 nm): 0.90 -
- Residual rate (%) [4, 6]: 68%
- Temperature change rate (%) [5]: 68%

Compound: COc1ccc(C2(c3ccc(OC)cc3)C=Cc3c4c(c5cc(N6CCCCC6)c(OC)cc5c3O2)-c2ccccc2C4(C)C)cc1 [Formula (E), reference compound]
- A35 (-) [1]: 1.30 -
- 35°C color optical density (-) [1]: 1.28 -
- Maximum absorption wavelength (nm) [2, 9]: 481 nm
- Maximum absorption wavelength ([2]; binder sheet (binder method)): 481 nm
- Maximum absorption wavelength (nm) [2, 10]: 481 nm
- Maximum absorption wavelength [2, 11]: 481 nm
- A23 (-) [3]: 1.85 -
- 23°C color optical density (-) [3]: 1.81 -
- Residual rate ([4]; binder sheet (binder method)): 68%
- Residual rate (%) ([4]; binder sheet (binder method)): 68%
- Residual rate (%) [4, 6]: 51%
- Residual rate [4, 11]: 51%
- A35/A23 *100 ([5]; binder sheet (binder method)): 70%
- A35/A23 *100 (%) ([5]; binder sheet (binder method)): 70%
- Temperature change rate (%) [5]: 71%
- A35/A23 *100 [5, 11]: 71%

Compound: COc1ccc(C2(c3ccc(OC)cc3)C=Cc3c4c(c5cc(N6CCc7ccccc7C6)c(OC)cc5c3O2)-c2ccccc2C4(C)C)cc1 [Formula (F), reference compound]
- A35 (-) [1]: 1.30 -
- 35°C color optical density (-) [1]: 1.28 -
- Maximum absorption wavelength (nm) [2, 9]: 481 nm
- Maximum absorption wavelength (nm) [2, 10]: 481 nm
- A23 (-) [3]: 1.85 -
- 23°C color optical density (-) [3]: 1.81 -
- Residual rate (%) ([4]; binder sheet (binder method)): 64%
- Residual rate (%) [4, 6]: 50%
- A35/A23 *100 (%) ([5]; binder sheet (binder method)): 70%
- Temperature change rate (%) [5]: 71%

Next, values leading:

- 35°C color optical density (-) ([1]; absorption band at 469 nm): 0.78 -
- 35°C color optical density (-) ([1]; absorption band at 570 nm): 0.50 -
- Maximum absorption wavelength (nm) ([2]; photochromic laminate by coating method, 40 µm photochromic layer on thiourethane lens, 0.25 mmol compound per 100 g monomers, absorption band at 469 nm): 469 nm
- Maximum absorption wavelength (nm) ([2]; photochromic laminate by coating method, 40 µm photochromic layer on thiourethane lens, 0.25 mmol compound per 100 g monomers, absorption band at 570 nm): 570 nm
- 23°C color optical density (-) ([3]; absorption band at 469 nm): 1.20 -
- 23°C color optical density (-) ([3]; absorption band at 570 nm): 0.77 -
- Residual rate (%) [4, 6]: 73%
- Temperature change rate (%) [5]: 65%
Compound: COc1ccc(C2(c3ccc(OC)cc3)C=Cc3c4c(c5cc(Sc6c(C)cccc6C)c(OC)cc5c3O2)-c2ccccc2C4(C)C)cc1 [Formula (C), reference compound]

- 35°C color optical density (-) ([1]; absorption band at 449 nm): 0.44 -
- 35°C color optical density (-) ([1]; absorption band at 569 nm): 0.55 -
- Maximum absorption wavelength (nm) ([2]; photochromic laminate by coating method, 40 µm photochromic layer on thiourethane lens, 0.25 mmol compound per 100 g monomers, absorption band at 449 nm): 449 nm
- Maximum absorption wavelength (nm) ([2]; photochromic laminate by coating method, 40 µm photochromic layer on thiourethane lens, 0.25 mmol compound per 100 g monomers, absorption band at 569 nm): 569 nm
- Maximum absorption wavelength [2, 7]: 449 nm
- Maximum absorption wavelength [2, 8]: 569 nm
- 23°C color optical density (-) ([3]; absorption band at 449 nm): 0.69 -
- 23°C color optical density (-) ([3]; absorption band at 569 nm): 0.87 -
- Residual rate (%) ([4]; photochromic laminate by coating method, absorption band at 449 nm): 74%
- Residual rate (%) ([4]; photochromic laminate by coating method, absorption band at 569 nm): 73%
- Residual rate [4, 7]: 74%
- Residual rate [4, 8]: 73%
- Temperature change rate (%) [5]: 63%
- A35/A23 *100 [5, 7]: 64%
- A35/A23 *100 [5, 8]: 63%
Compound: COc1ccc(C2(c3ccc(OC)cc3)C=Cc3c4c(c5ccc(OC)cc5c3O2)-c2ccccc2C4(C)C)cc1 [Formula (D), reference compound]
